{"source": "patent US20120040966A1", "about": "“ANTI-VIRAL COMPOUNDS, TREATMENT, AND ASSAY” (priority 2008, published 2012)", "key": {"[1]": {"tested_on": "Influenza virus strain A/CA/04/2009 (H1N1)", "assay": "organism not typed", "assay_type": "cell-based", "conditions": "MDCK, 72 h, read-out: H1N1 EC50 (@ 50% Via)"}, "[2]": {"tested_on": "influenza strain A/VN/1203/2004 (H5N1)", "assay": "microbe, parasite or virus in culture", "assay_type": "cell-based, Influenza A virus (H5N1)", "conditions": "Influenza A virus, H5N1, MDCK, 72 h"}, "[3]": {"tested_on": "Madin Darby Canine Kidney (MDCK) cells", "assay": "cells", "assay_type": "cell-based", "conditions": "Canis lupus familiaris, MDCK, read-out: IC50 (toxicity)"}, "[4]": {"conditions": "read-out: H5N1 EC50 (@ 50% Via)"}}, "note": "Like-named read-outs stand apart in the source and are kept apart here."}
{"smiles": "COc1ccc(C2NC(=O)NC3=C2CN(C(=O)CN2CCC2)c2ccccc23)cc1Br", "note": "(stereo not shown) [compound 25411]", "values": [{"measurement": "EC50", "setting": "[1]", "value": 3.7, "unit": "µM"}, {"measurement": "EC50", "setting": "[2]; [4]", "value": 0.814, "unit": "µM"}, {"measurement": "EC50", "setting": "[2]; read-out: H5N1 EC50 (Inf Pt)", "value": 0.755, "unit": "µM"}, {"measurement": "IC50", "setting": "[3]", "value": "> 40", "unit": "µM"}]}
{"smiles": "COc1ccc(C2NC(=O)NC3=C2CN(C(=O)CSCC(O)CO)c2ccccc23)cc1Br", "note": "(stereo not shown) [compound 25412]", "values": [{"measurement": "EC50", "setting": "[1]", "value": 3.1, "unit": "µM"}, {"measurement": "EC50", "setting": "[2]; [4]", "value": 0.893, "unit": "µM"}, {"measurement": "EC50", "setting": "[2]; read-out: H5N1 EC50 (Inf Pt)", "value": 0.848, "unit": "µM"}, {"measurement": "IC50", "setting": "[3]", "value": "> 40", "unit": "µM"}]}
{"smiles": "COc1ccc(C2NC(=O)NC3=C2CN(C(=O)CSCCO)c2ccccc23)cc1Br", "note": "(stereo not shown) [compound 25413]", "values": [{"measurement": "EC50", "setting": "[1]", "value": 3.8, "unit": "µM"}, {"measurement": "EC50", "setting": "[2]; [4]", "value": 4.4, "unit": "µM"}, {"measurement": "EC50", "setting": "[2]; read-out: H5N1 EC50 (Inf Pt)", "value": 4.5, "unit": "µM"}, {"measurement": "IC50", "setting": "[3]", "value": "> 40", "unit": "µM"}]}
{"smiles": "COc1ccc(C2NC(=O)NC3=C2CN(C(=O)CNC(=O)CO)c2ccccc23)cc1Br", "note": "(stereo not shown) [compound 25414]", "values": [{"measurement": "EC50", "setting": "[1]", "value": "> 40", "unit": "µM"}, {"measurement": "EC50", "setting": "[2]; [4]", "value": 0.277, "unit": "µM"}, {"measurement": "EC50", "setting": "[2]; read-out: H5N1 EC50 (Inf Pt)", "value": 0.275, "unit": "µM"}, {"measurement": "IC50", "setting": "[3]", "value": "> 40", "unit": "µM"}]}
